These results are taken from EP0595557A1, “New substituted azetidinones as anti-inflammatory and antidegenerative agents” (MERCK & CO. INC., priority 1992, dated 1994).

The target in this test is T1, Human Polymorphonuclear Leukocyte Elastase (Homo sapiens, UniProt P08246).
T1 construct: Crude extract of human polymorphonuclear leukocytes (PMN) containing elastase activity; from tissue; host or cells: human polymorphonuclear leukocytes (crude extract)
T1 sequence (P08246 30-267): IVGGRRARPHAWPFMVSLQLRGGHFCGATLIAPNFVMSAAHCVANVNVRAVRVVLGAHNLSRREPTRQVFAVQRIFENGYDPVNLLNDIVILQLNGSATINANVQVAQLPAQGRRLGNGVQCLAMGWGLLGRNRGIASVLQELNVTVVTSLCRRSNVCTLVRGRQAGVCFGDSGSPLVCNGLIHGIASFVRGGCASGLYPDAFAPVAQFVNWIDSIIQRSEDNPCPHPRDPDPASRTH
Nature of the test: Enzyme assay for inhibition of human polymorphonuclear leukocyte elastase via hydrolysis of Boc-AAPAN or Boc-AAPVN. Format: biochemical. To be noted: pH 7.5, second order rate constant for inactivation of the enzyme, expressed to the nearest thousand, read-out: Kobs/[I]. On the procedure:
Enzyme Assays for the Inhibition of Human Polymorphonuclear Leukocyte Elastase Via Hydrolysis of N-t-Boc-alanyl-alanyl-prolylalanine-p-nitroanilide (Boc-AAPAN) or N-t-Boc-alanyl-prolylvaline-p-nitro-anilide (Boc-AAPVN) Reagent:
0.05M TES (N-tris[hydroxymethyl]methyl-2-mino-ethanesulfonic acid) Buffer, pH 7.5.
0.2 mM Boc-AAPAN or Boc-AAPVN.
To prepare substrate, the solid was first dissolved in 10.0 ml DMSO. Buffer at pH 7.5 was then added to a final volume of 100 ml.
Crude extract of human polymorphonuclear leukocytes (PMN) containing elastase activity.
Inhibitors (azetidinones) to be tested dissolved in DMSO just before use.
To 1.0 ml of 0.2 mM Boc-AAPAN in a cuvette, 0.01-0.1 ml of DMSO with or without inhibitor was added. After mixing, a measurement was taken at 410 mµ to detect any spontaneous hydrolysis due to presence of test compound. 0.05 Milliliters of PMN extract was then added and the ΔOD/min at 410 mµ was measured and recorded. Beckman model 35 spectrophotometer was used.
Results were expressed to the nearest thousand ^kobs/I which is the second order rate constant in per mole per second for inactivation of the enzyme.
The elastase activity in the crude PMN extract may vary from one preparation to another. A control of each new batch is run, and the volume added in the assay procedure is adjusted according to activity.
Regarding `CCC[C@@H](NC(=O)N1C(=O)C(CC)(CC)[C@@H]1Oc1ccc(C(=O)NCCN2CCC3(CCCCC3)CC2)cc1)c1ccc(C)cc1` [Compound 99], the kinact/KI amounted to 2.58e+06 M⁻¹ s⁻¹.

Turning to `CCC[C@@H](NC(=O)N1C(=O)C(CC)(CC)[C@@H]1Oc1ccc(CC(=O)N(C)CCN(C(C)C)C(C)C)cc1)c1ccc(C)cc1` [Compound 58], the kinact/KI stood at 1.63e+06 M⁻¹ s⁻¹.

Regarding `CCC[C@@H](NC(=O)N1C(=O)C(CC)(CC)[C@@H]1Oc1ccc(C(=O)O[C@@H](C)C(=O)OCc2ccccc2)cc1)c1ccc(C)cc1` (relative stereo) [Compound 10, 1-Methyl-2-oxo-2-(phenylmethoxy)ethyl(2S-(1(S*),R*,(R)))-4-((3,3-diethyl-1-(((1-(4-methylphenyl)butyl)amino)carbonyl)-4-oxo-2-azetidinyl)oxy) benzoate], the kinact/KI turned out to be 2.89e+06 M⁻¹ s⁻¹.

Regarding `CCCC(NC(=O)N1C(=O)C(CC)(CC)C1Oc1ccc(C(=O)OCC(=O)N(CCO)CCO)cc1)c1ccc(C)cc1` (stereo not drawn) [Compound 3, 2-(bis(2-hydroxyethyl)amino)-2-oxoethyl(S-(R*,S*))-4-((3,3-diethyl-1-(((1-(4-methyl-phenyl)butyl)amino)carbonyl)-4-oxo-2-azetidinyl)oxy) benzoate], the kinact/KI was 3.43e+06 M⁻¹ s⁻¹.

As for `CCC[C@@H](NC(=O)N1C(=O)C(CC)(CC)[C@@H]1Oc1ccc(C(=O)N(C)CCN(C)C2CCC3CCC2C3)cc1)c1ccc(C)cc1` (stereo partly shown) [Compound 223], the kinact/KI was found to be 2.58e+06 M⁻¹ s⁻¹.

`CCC[C@@H](NC(=O)N1C(=O)C(CC)(CC)[C@@H]1Oc1ccc(C(=O)NCCN2CCC[C@H]2CO)cc1)c1ccc(C)cc1` [Compound 141]: the kinact/KI worked out at 1.51e+06 M⁻¹ s⁻¹.

In the case of `CCC[C@@H](NC(=O)N1C(=O)C(CC)(CC)[C@@H]1Oc1ccc(C(=O)OCC(=O)NC(CO)(CO)CO)cc1)c1ccc(C)cc1` [Compound 5], the kinact/KI is 4.45e+06 M⁻¹ s⁻¹.

For the compound `CCC[C@@H](NC(=O)N1C(=O)C(CC)(CC)[C@@H]1Oc1ccc(CC(=O)N(C)CCN(C)C)cc1)c1cccc(C(=O)N2CCOCC2)c1` [Compound 268], the kinact/KI is 142000 M⁻¹ s⁻¹.

For `CCC[C@@H](NC(=O)N1C(=O)C(CC)(CC)[C@@H]1Oc1ccc(CC(=O)OCC(=O)O)cc1)c1ccc(C)cc1` [Compound 38], the kinact/KI amounted to 1.01e+06 M⁻¹ s⁻¹.

Regarding `CCC[C@@H](NC(=O)N1C(=O)C(CC)(CC)[C@@H]1Oc1ccc(C(=O)OCCN(C)Cc2ccccc2)cc1)c1ccc(C)cc1` [Compound 31, 2-[methyl(phenylmethyl)amino]ethyl [S-(R*,S*)]-4-[[3,3-diethyl-1-[[[1-(4-methyl-phenyl)butyl]amino]carbonyl]-4-oxo-2-azetidinyl]oxy]benzoate], the kinact/KI amounted to 1.18e+06 M⁻¹ s⁻¹.

As to `CCC[C@@H](NC(=O)N1C(=O)C(CC)(CC)[C@@H]1Oc1ccc(C(=O)N2CCN(C)CC2)cc1)c1ccc(OC)cc1` [Compound 298], the kinact/KI amounted to 1.84e+06 M⁻¹ s⁻¹.

For `CCC[C@@H](NC(=O)N1C(=O)C(CC)(CC)[C@@H]1Oc1ccc(C(=O)N(CCN(C)C)CCN(C)C)cc1)c1ccc(C)cc1` [Compound 143], the kinact/KI amounted to 1.88e+06 M⁻¹ s⁻¹.

Consider `CCC[C@@H](NC(=O)N1C(=O)C(CC)(CC)[C@@H]1Oc1cc(C)c(C(=O)N(CC)CCN(C)C)c(C)c1)c1ccc(C)cc1` [Compound 309], for which the kinact/KI came to 398000 M⁻¹ s⁻¹.

In the case of `CCC[C@@H](NC(=O)N1C(=O)C(CC)(CC)[C@@H]1Oc1ccc(CC(=O)N2CCN(C)CC2)cc1)c1ccc(C)cc1` [Compound 41], the kinact/KI is 974000 M⁻¹ s⁻¹.

Turning to `CCC[C@@H](NC(=O)N1C(=O)C(CC)(CC)[C@@H]1Oc1ccc(C(=O)N2CCN(CC)CC2)cc1)c1ccc(C)cc1` [Compound 252], the kinact/KI worked out at 2.32e+06 M⁻¹ s⁻¹.

As for `CCC[C@@H](NC(=O)N1C(=O)C(CC)(CC)[C@@H]1Oc1ccc(C(=O)OC(C)CN(C)C)cc1)c1ccc(C)cc1` (stereo partly drawn) [Compound 13, 1-Dimethylamino-2-propyl [S-(R*,S*)]-4-[[3,3-diethyl-1-[[[1-(4-methyl-phenyl)butyl]amino]carbonyl]-4-oxo-2-azetidinyl]oxy]benzoate], the kinact/KI was found to be 2.47e+06 M⁻¹ s⁻¹.

Regarding `CCC[C@@H](NC(=O)N1C(=O)C(CC)(CC)[C@@H]1Oc1ccc(CC(=O)N(CC)CC)cc1)c1ccc(C)c(C(=O)N2CCOCC2)c1` [Compound 270], the kinact/KI was 740000 M⁻¹ s⁻¹.

With `CCC[C@@H](NC(=O)N1C(=O)C(CC)(CC)[C@@H]1Oc1ccc(CC(=O)N2CCOCC2)cc1)c1cccc(C(=O)N2CCOCC2)c1` [Compound 266], the kinact/KI was 169000 M⁻¹ s⁻¹.

With `CCC[C@@H](NC(=O)N1C(=O)C(CC)(CC)[C@@H]1Oc1ccc(C(=O)N(C)CCN(C)Cc2ccc(F)cc2)cc1)c1ccc(C)cc1` [Compound 182], the kinact/KI was found to be 2.14e+06 M⁻¹ s⁻¹.

As for `CCC[C@@H](NC(=O)N1C(=O)C(CC)(CC)[C@@H]1Oc1ccc(C(=O)NOCc2ccccc2)cc1)c1ccc(C)cc1` [Compound 190], the kinact/KI stood at 1.8e+06 M⁻¹ s⁻¹.

For `CCC[C@@H](NC(=O)N1C(=O)C(CC)(CC)[C@@H]1Oc1ccc(C(=O)N2CC3CC2CN3C)cc1)c1ccc(C)cc1` (stereo partly shown) [Compound 212], the kinact/KI stood at 860000 M⁻¹ s⁻¹.

As for `CCC[C@@H](NC(=O)N1C(=O)C(CC)(CC)[C@@H]1Oc1ccc(C(=O)N(C)CCN(C)Cc2cccc(F)c2)cc1)c1ccc(C)cc1` [Compound 203], the kinact/KI turned out to be 1.26e+06 M⁻¹ s⁻¹.

Turning to `CCC[C@@H](NC(=O)N1C(=O)C(CC)(CC)[C@@H]1Oc1ccc(C(=O)N(C)C2CCCN(Cc3ccccc3)C2)cc1)c1ccc(C)cc1` (stereo partly shown) [Compound 189], the kinact/KI came to 1.88e+06 M⁻¹ s⁻¹.

For `CCC[C@@H](NC(=O)N1C(=O)C(CC)(CC)[C@@H]1Oc1ccc(C(=O)N2CCN(c3ncccn3)CC2)cc1)c1ccc(C)cc1` [Compound 254], the kinact/KI worked out at 2.14e+06 M⁻¹ s⁻¹.

`CCC[C@@H](NC(=O)N1C(=O)C(CC)(CC)[C@@H]1Oc1cc(C)c(C(=O)N(C)CCN(C)C)c(C)c1)c1ccc(C)cc1` [Compound 307]: the kinact/KI stood at 352000 M⁻¹ s⁻¹.

With `CCC[C@@H](NC(=O)N1C(=O)C(CC)(CC)[C@@H]1Oc1ccc(C(=O)N(C)CCN2CCC(O)CC2)cc1)c1ccc(C)cc1` [Compound 129], the kinact/KI amounted to 1.99e+06 M⁻¹ s⁻¹.

With `CCC[C@@H](NC(=O)N1C(=O)C(CC)(CC)[C@@H]1Oc1ccc(C(=O)N(CC)CCN2CCCCC2)cc1)c1ccc(C)cc1` [Compound 132], the kinact/KI came out at 1.24e+06 M⁻¹ s⁻¹.

Take `CCC[C@@H](NC(=O)N1C(=O)C(CC)(CC)[C@@H]1Oc1ccc(C(=O)N2CCN(CCC)CC2)cc1)c1ccc(C)cc1` [Compound 253]: the kinact/KI stood at 1.77e+06 M⁻¹ s⁻¹.

On to `CCC[C@@H](NC(=O)N1C(=O)C(CC)(CC)[C@@H]1Oc1ccc(CC(N)=O)cc1)c1ccc(C)c(C(=O)N2CCOCC2)c1` [Compound 269], for which the kinact/KI is 637000 M⁻¹ s⁻¹.

Consider `CCC[C@@H](NC(=O)N1C(=O)C(CC)(CC)[C@@H]1Oc1ccc(CC(=O)N(C)c2ccc(C(=O)O)cc2)cc1)c1ccc(C)cc1` [Compound 71], for which the kinact/KI amounted to 1.51e+06 M⁻¹ s⁻¹.

Consider `CCC[C@@H](NC(=O)N1C(=O)C(CC)(CC)[C@@H]1Oc1ccc(C(=O)N(C)CCN(C)C)c(O)c1)c1ccc(C)cc1` [Compound 310], for which the kinact/KI was determined as 838000 M⁻¹ s⁻¹.

Regarding `CCC[C@@H](NC(=O)N1C(=O)C(CC)(CC)[C@@H]1Oc1ccc(C(=O)N(C)CCN(C)Cc2ccc(C)cc2)cc1)c1ccc(C)cc1` [Compound 178], the kinact/KI was found to be 1.87e+06 M⁻¹ s⁻¹.

As for `CCC[C@@H](NC(=O)N1C(=O)C(CC)(CC)[C@@H]1Oc1ccc(C(=O)N(C)CCN(C)C2CCC(CC)CC2)cc1)c1ccc(C)cc1` (stereo partly shown) [Compound 232], the kinact/KI was 2.48e+06 M⁻¹ s⁻¹.

Regarding `CCC[C@@H](NC(=O)N1C(=O)C(CC)(CC)[C@@H]1Oc1ccc(C(=O)OCC(=O)N2CCC[C@H]2C(=O)O)cc1)c1ccc(C)cc1` (relative stereo) [Compound 9, (S(R*,S*))-1-(((4-((3,3-diethyl-1-(((1-(4-methylphenyl)butyl)amino)carbonyl)-4-oxo-2-azetidinyl)oxy)benzoyl)oxy)acetyl) L-proline], the kinact/KI worked out at 1.57e+06 M⁻¹ s⁻¹.

For `CCC[C@@H](NC(=O)N1C(=O)C(CC)(CC)[C@@H]1Oc1ccc(C(=O)OCC(=O)N(C)C)cc1)c1ccc(C)cc1` (relative stereo) [Compound 6, 2-(dimethylamino)-2-oxoethyl, (S-(R*,S*))-4-((3,3-Diethyl-1-(((1-(4-methyl-phenyl)butyl)amino)carbonyl)-4-oxo-2-azetidinyl)oxy)-benzoate], the kinact/KI stood at 3e+06 M⁻¹ s⁻¹.

For the compound `CCC[C@@H](NC(=O)N1C(=O)C(CC)(CC)[C@@H]1Oc1ccc(C(=O)N2CCOCC2)cc1)c1ccc2c(c1)OCO2` [Compound 265d], the kinact/KI was found to be 3.7e+06 M⁻¹ s⁻¹.

On to `CCC[C@@H](NC(=O)N1C(=O)C(CC)(CC)[C@@H]1Oc1ccc(C(=O)N(CCN(C)C)c2ccccc2)cc1)c1ccc(C)cc1` [Compound 82], for which the kinact/KI turned out to be 2.5e+06 M⁻¹ s⁻¹.

In the case of `CCC[C@@H](NC(=O)N1C(=O)C(CC)(CC)[C@@H]1Oc1ccc(C(=O)N(C)CCNC)cc1)c1ccc(C)cc1` [Compound 92], the kinact/KI came to 1.45e+06 M⁻¹ s⁻¹.

On to `CCC[C@@H](NC(=O)N1C(=O)C(CC)(CC)[C@@H]1Oc1ccc(C(=O)N(C)CCCN(C)CC)cc1)c1ccc(C)cc1` [Compound 214], for which the kinact/KI was 1.1e+06 M⁻¹ s⁻¹.

Regarding `CCC[C@@H](NC(=O)N1C(=O)C(CC)(CC)[C@@H]1Oc1ccc(C(=O)NCCc2nccn2Cc2ccccc2)cc1)c1ccc(C)cc1` [Compound 114], the kinact/KI stood at 3.85e+06 M⁻¹ s⁻¹.
